Counter-ions that a name gives are not always drawn.

Assay [1] has as its system 40 different bacterial species. Nature of the assay: Prestwick Chemical Library growth screen, whole panel (hits, anticommensal activity). The conditions noted are these: for anticommensal activity in the screen (in words): 20 μM, 40 strains, FDR<0.01. It counts as cell-based, human gut isolates.
The test system of assay [2] is Clostridium perfringens (NT5032). The class given is cell-based. The following applies: screen at 20 μM.
The subject of assay [3] is Clostridium difficile (NT5083). Nature of the assay: Prestwick Chemical Library growth screen (OD578 growth curves, AUC). It counts as cell-based. The conditions noted are these: screen at 20 μM.
Assay [4] concerns Bacteroides fragilis (ET) (NT5033). The class given is cell-based, Bacteroides fragilis enterotoxigenic. The following applies: screen at 20 μM.
[5] abbreviates: number of species inhibited of 40 different bacterial species tested.
Where [6] appears, read: number of the 40 bacterial species tested whose growth is inhibited, Table 7 broad-spectrum compounds.
The mark [7] stands for this setting: number of the 40 strains inhibited at 20 μM (FDR<0.01).

In assay [1] (setting [5]), `C[C@H]1O[C@H](O[C@H]2[C@H](O)[C@@H](O)[C@@H](O[C@H]3[C@H](O)[C@@H](O)C(O)O[C@@H]3CO)O[C@@H]2CO)[C@H](O)[C@@H](O)[C@@H]1N[C@H]1C=C(CO)[C@@H](O)[C@H](O)[C@H]1O` (stereo partly drawn) [Acarbose] displayed a n_hit of 6.
`C=C1/C(=C\C=C2/CCC[C@]3(C)[C@@H]([C@H](C)CCCC(C)C)CC[C@@H]23)C[C@@H](O)C[C@@H]1O` [Alfacalcidol] displayed a n_hit in assay [1] (setting [5]) of 7. Besides, the “selective inhibition of the growth of C. perfringens bacteria (in words)” value in assay [2] was “selectively inhibiting the growth”.
`CCCCc1oc2ccccc2c1C(=O)c1cc(I)c(OCCN(CC)CC)c(I)c1` [Amiodarone hydrochloride] returned a n_hit in assay [1] (setting [6]) of 10.
For the compound `CCOC(=O)C1=C(COCCN)NC(C)=C(C(=O)OC)C1c1ccccc1Cl` (stereo not drawn) [Amlodipine], the n_hit in assay [1] (setting [7]) is given as 2.
In assay [1] (setting [6]), `O=C1c2c(O)cccc2Cc2cccc(O)c21` [Anthralin] returned a n_hit of 11.
The same measure, in the same setting: for `C[C@@H](O[C@H]1OCCN(Cc2n[nH]c(=O)[nH]2)[C@H]1c1ccc(F)cc1)c1cc(C(F)(F)F)cc(C(F)(F)F)c1` [Aprepitant] the value was 10.
In the case of `O=C1CCc2ccc(OCCCCN3CCN(c4cccc(Cl)c4Cl)CC3)cc2N1` [Aripiprazole], the n_hit in assay [1] (setting [5]) was 3.
Regarding `COc1ccc(CCN2CCC(Nc3nc4ccccc4n3Cc3ccc(F)cc3)CC2)cc1` [Astemizole], the n_hit in assay [1] (setting [6]) was found to be 10.
Compound `Nc1ncn(C2OC(CO)C(O)C2O)c(=O)n1` (stereo not drawn) [Azacytidine-5] yielded a n_hit in assay [1] (setting [5]) of 1. For the same compound, the “selective inhibition of the growth of C. perfringens bacteria (in words)” value in assay [2] is given as “selectively inhibiting the growth”.
`Cn1cnc([N+](=O)[O-])c1Sc1ncnc2nc[nH]c12` [Azathioprine] displayed a n_hit in assay [1] (setting [7]) of 7. For the same compound, the “inhibition of the growth of C. difficile bacteria (in words)” value in assay [3] is on record as “effective in inhibiting the growth”.
Take `CC(C)COCC(CN(Cc1ccccc1)c1ccccc1)N1CCCC1` (stereo not drawn) [Bepridil hydrochloride]: in assay [1] (setting [6]), the n_hit was found to be 14.
In assay [1] (setting [7]), `CC1(C)[C@@H](OC(=O)CCC(=O)O)CC[C@]2(C)[C@H]3C(=O)C=C4[C@@H]5C[C@@](C)(C(=O)O)CC[C@]5(C)CC[C@@]4(C)[C@]3(C)CC[C@@H]12` [Carbenoxolone disodium salt] had a n_hit of 2. Further, the “inhibition of the growth of C. difficile bacteria (in words)” value in assay [3] is on record as “effective in inhibiting the growth”.
Regarding `CN(C)CCCN1c2ccccc2Sc2ccc(Cl)cc21` [Chlorpromazine hydrochloride], in assay [1] (setting [5]), the n_hit is listed as 6. Further, the “selective inhibition of the growth of C. perfringens bacteria (in words)” value in assay [2] is listed as “selectively inhibiting the growth”.
For `COCCOC(=O)C1=C(C)NC(C)=C(C(=O)OC/C=C/c2ccccc2)C1c1cccc([N+](=O)[O-])c1` (stereo not drawn) [Cilnidipine], the n_hit in assay [1] (setting [7]) came to 5. In addition, the “selective inhibition of the growth of an enterotoxigenic strain of Bacteroides fragilis (in words)” value in assay [4] is “selectively inhibiting the growth”. In addition, in assay [3], the “inhibition of the growth of C. difficile bacteria (in words)” value is on record as “effective in inhibiting the growth”.
For the compound `Clc1ccc(Cn2c(CN3CCCC3)nc3ccccc32)cc1` [Clemizole hydrochloride], the n_hit in assay [1] (setting [6]) turned out to be 15.
On the same count and under the same terms, for `O=c1oc2ccccc2c(O)c1Cc1c(O)c2ccccc2oc1=O` [Dicumarol] the value was 10.
The same measure, in the same setting: for `CCCCC(=O)O[C@H]1CC[C@H]2[C@@H]3CCc4cc(O)ccc4[C@H]3CC[C@]12C` [Estradiol Valerate] the value was 11.
`C=C(CC)C(=O)c1ccc(OCC(=O)O)c(Cl)c1Cl` [Ethacrynic acid]: the n_hit in assay [1] (setting [5]) is given as 6. Moreover, in assay [4], the “selective inhibition of the growth of an enterotoxigenic strain of Bacteroides fragilis (in words)” value is listed as “selectively inhibiting the growth”. Moreover, the “selective inhibition of the growth of C. perfringens bacteria (in words)” value in assay [2] is reported as “selectively inhibiting the growth”.
On to `CCN(CC)C(C)CN1c2ccccc2Sc2ccccc21` (stereo not drawn) [Ethopropazine hydrochloride], for which, in assay [1] (setting [6]), the n_hit is 11.
For the compound `CCOC(=O)/C=C(C)/C=C/C=C(C)/C=C/c1c(C)cc(OC)c(C)c1C` [Etretinate], the n_hit in assay [1] (setting [5]) is reported as 1. In addition, the “selective inhibition of the growth of C. perfringens bacteria (in words)” value in assay [2] is recorded as “selectively inhibiting the growth”.
In assay [1] (setting [7]), `CC(NCCC(c1ccccc1)c1ccccc1)c1ccccc1` (stereo not drawn) [Fendiline hydrochloride] yielded a n_hit of 8. Besides, the “inhibition of the growth of C. difficile bacteria (in words)” value in assay [3] is recorded as “effective in inhibiting the growth”.
`O=C(O)Cc1sc(-c2ccccc2)nc1-c1ccc(Cl)cc1` [Fentiazac]: in assay [1] (setting [7]), the n_hit came to 1. Besides, the “inhibition of the growth of C. difficile bacteria (in words)” value in assay [3] was “effective in inhibiting the growth”.
Regarding `O=C(O)c1ccccc1Nc1cccc(C(F)(F)F)c1` [Flufenamic acid], in assay [1] (setting [5]), the n_hit is on record as 4.
Still for that read-out and setting: for `Nc1nc2ncc(CNc3ccc(C(=O)N[C@@H](CCC(=O)O)C(=O)O)cc3)nc2c(=O)[nH]1` [Folic acid] the value was 2.
`Nc1ccn([C@@H]2O[C@H](CO)[C@@H](O)C2(F)F)c(=O)n1` [Gemcitabine]: the n_hit in assay [1] (setting [5]) is given as 2. Also, the “selective inhibition of the growth of C. perfringens bacteria (in words)” value in assay [2] is recorded as “selectively inhibiting the growth”.
Take `COc1ccc2c(c1)C(=O)N(CCc1ccc(S(=O)(=O)NC(=O)NC3CCCCC3)cc1)C(=O)C2(C)C` [Gliquidone]: the n_hit in assay [1] (setting [7]) is recorded as 1. The “inhibition of the growth of C. difficile bacteria (in words)” value in assay [3] is listed as “effective in inhibiting the growth”.
`COC1=C(OC)C(=O)C(CCCCCCCCCCO)=C(C)C1=O` [Idebenone] returned a n_hit in assay [1] (setting [5]) of 3. Moreover, the “selective inhibition of the growth of C. perfringens bacteria (in words)” value in assay [2] is recorded as “selectively inhibiting the growth”.
In assay [1] (setting [7]), `CCOC(=O)C1=C(C)NC(C)=C(C(=O)OCC)C1c1ccccc1/C=C/C(=O)OC(C)(C)C` [Lacidipine] came in with a n_hit of 6. Further, the “inhibition of the growth of C. difficile bacteria (in words)” value in assay [3] is “effective in inhibiting the growth”.
For `CCOC(=O)N1CCC(=C2c3ccc(Cl)cc3CCc3cccnc32)CC1` [Loratadine], the n_hit in assay [1] (setting [6]) amounted to 15.
As to `Cc1cccc(CN2CCN(C(c3ccccc3)c3ccc(Cl)cc3)CC2)c1` (stereo not drawn) [Meclozine dihydrochloride], the n_hit in assay [1] (setting [7]) is reported as 8. Moreover, in assay [3], the “inhibition of the growth of C. difficile bacteria (in words)” value is “effective in inhibiting the growth”.
In the same order, the values of `S=c1nc[nH]c2nc[nH]c12` [Mercaptopurine] are 4 and “effective in inhibiting the growth”.
In assay [1] (setting [6]), `CSc1ccc2c(c1)C(N1CCN(C)CC1)Cc1ccccc1S2.O=C(O)/C=C\C(=O)O` (stereo not drawn) [Methiothepin maleate] had a n_hit of 10.
In turn, `CN1CCCC(CC2c3ccccc3Sc3ccccc32)C1` (stereo not drawn) [Metixene hydrochloride] had a n_hit in assay [1] (setting [5]) of 9. Moreover, the “selective inhibition of the growth of an enterotoxigenic strain of Bacteroides fragilis (in words)” value in assay [4] is “selectively inhibiting the growth”.
Consider `CC#C[C@]1(O)CC[C@H]2[C@@H]3CCC4=CC(=O)CCC4=C3[C@@H](c3ccc(N(C)C)cc3)C[C@@]21C` [Mifepristone], for which the n_hit in assay [1] (setting [7]) worked out at 3. In assay [3], the “inhibition of the growth of C. difficile bacteria (in words)” value is given as “effective in inhibiting the growth”.
In assay [1] (setting [5]), `C[C@@H]1C[C@H]2[C@@H]3CCC4=CC(=O)C=C[C@]4(C)[C@@]3(Cl)[C@@H](O)C[C@]2(C)[C@@]1(OC(=O)c1ccco1)C(=O)CCl` [Mometasone furoate] came in with a n_hit of 1.
Consider `CC(C)(O)c1ccccc1CC[C@@H](SCC1(CC(=O)O)CC1)c1cccc(/C=C/c2ccc3ccc(Cl)cc3n2)c1` [Montelukast], for which, in assay [1] (setting [7]), the n_hit is recorded as 8.
In assay [1] (setting [5]), `CC(=O)O[C@H]1C(=O)[C@@]2(C)[C@H]([C@H](OC(=O)c3ccccc3)[C@]3(O)C[C@H](OC(=O)[C@H](O)[C@@H](NC(=O)c4ccccc4)c4ccccc4)C(C)=C1C3(C)C)[C@]1(OC(C)=O)CO[C@@H]1C[C@@H]2O` [Paclitaxel] had a n_hit of 1. The “selective inhibition of the growth of C. perfringens bacteria (in words)” value in assay [2] is given as “selectively inhibiting the growth”.
In the same order, the values of `O=C1c2ccccc2C(=O)C1c1ccccc1` [Phenindione] are 1 and “selectively inhibiting the growth”.
In assay [1] (setting [5]), `CNCCCC1c2ccccc2C=Cc2ccccc21` [Protriptyline hydrochloride] yielded a n_hit of 8. The “selective inhibition of the growth of an enterotoxigenic strain of Bacteroides fragilis (in words)” value in assay [4] is “selectively inhibiting the growth”.
In assay [1] (setting [7]), `CCCc1nc2c(C)cc(-c3nc4ccccc4n3C)cc2n1Cc1ccc(-c2ccccc2C(=O)O)cc1` [Telmisartan] had a n_hit of 4. Moreover, in assay [3], the “inhibition of the growth of C. difficile bacteria (in words)” value was “effective in inhibiting the growth”.
Consider `N[C@@H](Cc1cc(I)c(Oc2cc(I)c(O)c(I)c2)c(I)c1)C(=O)O` [Thyroxine (L)], for which the n_hit in assay [1] (setting [5]) is 3.
In assay [1] (setting [6]), `O=C(O)Cc1cc(I)c(Oc2ccc(O)c(I)c2)c(I)c1` [Tiratricol] registered a n_hit of 14.
For `Cc1cccc(N(C)C(=S)Oc2ccc3ccccc3c2)c1` [Tolnaftate], the n_hit in assay [1] (setting [5]) turned out to be 5. Further, the “selective inhibition of the growth of an enterotoxigenic strain of Bacteroides fragilis (in words)” value in assay [4] is listed as “selectively inhibiting the growth”.
`Cc1cc(-n2c(=O)[nH]c(=O)n(C)c2=O)ccc1Oc1ccc(SC(F)(F)F)cc1` [Toltrazuril] displayed a n_hit in assay [1] (setting [5]) of 7. In addition, the “selective inhibition of the growth of an enterotoxigenic strain of Bacteroides fragilis (in words)” value in assay [4] was “selectively inhibiting the growth”.
`CCOC1O[C@H]([C@@H](COCc2ccccc2)OCc2ccccc2)[C@H](OCc2ccccc2)[C@H]1O` (stereo partly drawn) [Tribenoside] had a n_hit in assay [1] (setting [7]) of 1. The “inhibition of the growth of C. difficile bacteria (in words)” value in assay [3] was “effective in inhibiting the growth”.
As to `Cc1c(C)c2c(c(C)c1O)CCC(C)(COc1ccc(CC3SC(=O)NC3=O)cc1)O2` (stereo not drawn) [Troglitazone], the n_hit in assay [1] (setting [6]) was found to be 13.
Regarding `O=C1Nc2ccc(Cl)cc2[C@@](C#CC2CC2)(C(F)(F)F)O1` [efavirenz], in assay [1], the “anticommensal activity in the screen (in words)” value is “anticommensal activity”.
On to `O=c1[nH]c(=O)n([C@H]2C[C@H](O)[C@@H](CO)O2)cc1C(F)(F)F` [trifluridine], for which the “anticommensal activity in the screen (in words)” value in assay [1] was “anticommensal activity”.

The values above are taken from patent publication US11766427B2, “Repurposing compounds for the treatment of infections and for modulating the composition of the gut microbiome” (EUROPEAN MOLECULAR BIOLOGY LABORATORY, priority 2018, dated 2023).
